Assays:
Assay in all cases: KINOMEscan competition binding
Conditions in all cases: compound 0.1 µM
PRKACB (human) = PRKACB (human) (UniProt P22694)
LRRK2 (human) = LRRK2 (human) (UniProt Q5S007)
LATS2 (human) = LATS2 (human) (UniProt Q9NRM7)
PRKX (human) = PRKX (human) (UniProt P51817)
MAP3K11 (human) = MAP3K11 (human) (UniProt Q16584)
HUNK (human) = HUNK (human) (UniProt P57058)
DYRK1A (human) = DYRK1A (human) (UniProt Q13627)
CSNK1E (human) = CSNK1E (human) (UniProt P49674)
PIP5K1C (human) = PIP5K1C (human) (UniProt O60331)
SRPK3 (human) = SRPK3 (human) (UniProt Q9UPE1)
ROCK1 (human) = ROCK1 (human) (UniProt Q13464)
HIPK1 (human) = HIPK1 (human) (UniProt Q86Z02)
CPK1 (P.falciparum) = system: CPK1 (P.falciparum)
EPHA3 (human) = EPHA3 (human) (UniProt P29320)
PIK3C2B (human) = PIK3C2B (human) (UniProt O00750)
DMPK (human) = DMPK (human) (UniProt Q09013)
[1] = system: EGFR (human), P00533 [747-751 del / S ins]
STK3 (human) = STK3 (human) (UniProt Q13188)
AKT3 (human) = AKT3 (human) (UniProt Q9Y243)
FYN (human) = FYN (human) (UniProt P06241)
CHUK (human) = CHUK (human) (UniProt O15111)
MAP2K3 (human) = MAP2K3 (human) (UniProt P46734)
CDK2 (human) = CDK2 (human) (UniProt P24941)
MAP4K3 (human) = MAP4K3 (human) (UniProt Q8IVH8)
KDR (human) = KDR (human) (UniProt P35968)
VRK2 (human) = VRK2 (human) (UniProt Q86Y07)
ULK1 (human) = ULK1 (human) (UniProt O75385)
[2] = system: ABL1 (human), P00519 [Y253F]
PDGFRA (human) = PDGFRA (human) (UniProt P16234)
CDC42BPB (human) = CDC42BPB (human) (UniProt Q9Y5S2)
RET (human) = RET (human) (UniProt P07949)
PAK6 (human) = PAK6 (human) (UniProt Q9NQU5)
FGFR1 (human) = FGFR1 (human) (UniProt P11362)
MAPK6 (human) = MAPK6 (human) (UniProt Q16659)
MAP3K15 (human) = MAP3K15 (human) (UniProt Q6ZN16)
ACVR2A (human) = ACVR2A (human) (UniProt P27037)
AKT1 (human) = AKT1 (human) (UniProt P31749)
CDK13 (human) = CDK13 (human) (UniProt Q14004)
TBK1 (human) = TBK1 (human) (UniProt Q9UHD2)
CDKL3 (human) = CDKL3 (human) (UniProt Q8IVW4)
MAP3K3 (human) = MAP3K3 (human) (UniProt Q99759)

EGFR (human), P00533 [747-751 del / S ins], sequence (P00533 whole entry, looked up, stated change not applied): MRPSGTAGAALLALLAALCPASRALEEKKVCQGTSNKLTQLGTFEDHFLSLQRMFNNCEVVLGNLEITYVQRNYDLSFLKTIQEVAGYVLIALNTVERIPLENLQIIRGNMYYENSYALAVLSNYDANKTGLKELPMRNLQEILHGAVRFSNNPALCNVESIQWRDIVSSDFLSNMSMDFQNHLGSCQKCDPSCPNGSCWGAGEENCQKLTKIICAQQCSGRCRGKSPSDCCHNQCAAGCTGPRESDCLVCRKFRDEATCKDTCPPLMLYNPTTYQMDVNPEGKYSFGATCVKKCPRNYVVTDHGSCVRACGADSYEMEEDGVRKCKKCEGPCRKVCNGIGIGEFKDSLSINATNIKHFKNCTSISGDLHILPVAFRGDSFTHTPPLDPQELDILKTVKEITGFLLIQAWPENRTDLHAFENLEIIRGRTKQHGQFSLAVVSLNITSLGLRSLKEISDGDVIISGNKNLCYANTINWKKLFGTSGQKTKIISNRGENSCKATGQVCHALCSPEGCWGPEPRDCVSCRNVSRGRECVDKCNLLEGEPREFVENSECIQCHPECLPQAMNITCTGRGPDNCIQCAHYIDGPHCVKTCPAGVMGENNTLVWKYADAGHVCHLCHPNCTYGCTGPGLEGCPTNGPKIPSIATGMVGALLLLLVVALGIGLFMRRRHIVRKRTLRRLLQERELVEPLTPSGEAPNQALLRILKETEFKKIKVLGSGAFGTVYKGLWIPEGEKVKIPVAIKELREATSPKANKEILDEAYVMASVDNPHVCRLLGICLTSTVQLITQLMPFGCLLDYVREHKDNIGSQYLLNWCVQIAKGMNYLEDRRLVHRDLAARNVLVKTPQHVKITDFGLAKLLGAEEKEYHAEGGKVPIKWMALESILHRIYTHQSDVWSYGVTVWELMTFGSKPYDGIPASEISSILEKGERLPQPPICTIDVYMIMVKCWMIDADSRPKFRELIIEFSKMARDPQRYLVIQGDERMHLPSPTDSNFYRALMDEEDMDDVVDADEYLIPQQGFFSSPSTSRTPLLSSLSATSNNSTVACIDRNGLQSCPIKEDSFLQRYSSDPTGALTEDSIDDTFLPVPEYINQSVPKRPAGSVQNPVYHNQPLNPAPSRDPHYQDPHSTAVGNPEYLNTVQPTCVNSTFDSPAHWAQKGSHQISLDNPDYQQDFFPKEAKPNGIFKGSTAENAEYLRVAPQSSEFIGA
FGFR1 (human), sequence (P11362 whole entry, looked up): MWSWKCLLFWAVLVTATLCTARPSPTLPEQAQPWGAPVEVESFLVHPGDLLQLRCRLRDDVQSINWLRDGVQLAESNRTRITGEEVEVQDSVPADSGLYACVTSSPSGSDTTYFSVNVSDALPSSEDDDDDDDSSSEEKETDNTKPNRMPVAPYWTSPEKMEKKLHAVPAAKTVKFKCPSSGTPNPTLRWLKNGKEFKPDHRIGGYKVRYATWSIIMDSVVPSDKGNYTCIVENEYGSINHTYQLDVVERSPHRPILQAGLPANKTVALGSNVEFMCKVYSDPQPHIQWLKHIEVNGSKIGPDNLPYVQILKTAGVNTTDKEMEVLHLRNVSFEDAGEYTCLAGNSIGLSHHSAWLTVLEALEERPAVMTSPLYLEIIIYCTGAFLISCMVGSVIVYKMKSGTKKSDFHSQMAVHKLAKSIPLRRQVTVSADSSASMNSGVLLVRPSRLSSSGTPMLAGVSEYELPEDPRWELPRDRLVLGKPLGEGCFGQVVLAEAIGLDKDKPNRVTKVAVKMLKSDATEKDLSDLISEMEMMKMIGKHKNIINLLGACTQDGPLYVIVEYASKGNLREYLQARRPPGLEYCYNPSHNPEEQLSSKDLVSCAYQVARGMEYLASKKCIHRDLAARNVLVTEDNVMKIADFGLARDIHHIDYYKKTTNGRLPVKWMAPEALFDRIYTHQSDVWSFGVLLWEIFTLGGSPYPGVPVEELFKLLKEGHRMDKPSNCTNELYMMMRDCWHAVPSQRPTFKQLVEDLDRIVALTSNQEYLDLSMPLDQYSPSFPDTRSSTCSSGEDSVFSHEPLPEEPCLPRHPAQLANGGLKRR
ULK1 (human), sequence (O75385 whole entry, looked up): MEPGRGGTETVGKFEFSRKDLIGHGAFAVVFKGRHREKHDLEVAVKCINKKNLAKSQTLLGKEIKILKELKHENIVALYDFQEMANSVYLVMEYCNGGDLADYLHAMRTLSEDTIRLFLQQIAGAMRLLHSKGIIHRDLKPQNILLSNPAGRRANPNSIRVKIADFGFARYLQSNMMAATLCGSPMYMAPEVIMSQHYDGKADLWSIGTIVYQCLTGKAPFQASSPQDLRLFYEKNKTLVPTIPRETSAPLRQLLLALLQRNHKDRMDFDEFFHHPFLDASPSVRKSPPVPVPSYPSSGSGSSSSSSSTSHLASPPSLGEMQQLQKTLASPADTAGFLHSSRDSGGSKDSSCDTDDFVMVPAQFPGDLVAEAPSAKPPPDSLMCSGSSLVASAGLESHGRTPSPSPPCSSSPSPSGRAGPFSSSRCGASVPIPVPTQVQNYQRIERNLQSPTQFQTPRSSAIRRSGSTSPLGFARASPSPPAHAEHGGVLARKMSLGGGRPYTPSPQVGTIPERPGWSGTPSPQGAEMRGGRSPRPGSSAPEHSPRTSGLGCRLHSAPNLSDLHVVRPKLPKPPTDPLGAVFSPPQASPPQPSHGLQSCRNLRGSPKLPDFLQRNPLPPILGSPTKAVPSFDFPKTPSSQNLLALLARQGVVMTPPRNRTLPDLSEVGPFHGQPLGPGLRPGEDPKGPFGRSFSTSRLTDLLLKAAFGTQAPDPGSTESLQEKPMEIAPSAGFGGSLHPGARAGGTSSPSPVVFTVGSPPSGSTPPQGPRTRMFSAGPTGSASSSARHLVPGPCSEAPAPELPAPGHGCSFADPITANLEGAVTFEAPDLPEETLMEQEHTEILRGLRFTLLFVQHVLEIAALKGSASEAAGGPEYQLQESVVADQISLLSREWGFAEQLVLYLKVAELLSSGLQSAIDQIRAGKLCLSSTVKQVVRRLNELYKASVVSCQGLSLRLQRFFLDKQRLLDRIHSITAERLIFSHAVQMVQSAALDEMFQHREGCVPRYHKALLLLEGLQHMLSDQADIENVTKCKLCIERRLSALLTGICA
PIP5K1C (human), sequence (O60331 whole entry, looked up): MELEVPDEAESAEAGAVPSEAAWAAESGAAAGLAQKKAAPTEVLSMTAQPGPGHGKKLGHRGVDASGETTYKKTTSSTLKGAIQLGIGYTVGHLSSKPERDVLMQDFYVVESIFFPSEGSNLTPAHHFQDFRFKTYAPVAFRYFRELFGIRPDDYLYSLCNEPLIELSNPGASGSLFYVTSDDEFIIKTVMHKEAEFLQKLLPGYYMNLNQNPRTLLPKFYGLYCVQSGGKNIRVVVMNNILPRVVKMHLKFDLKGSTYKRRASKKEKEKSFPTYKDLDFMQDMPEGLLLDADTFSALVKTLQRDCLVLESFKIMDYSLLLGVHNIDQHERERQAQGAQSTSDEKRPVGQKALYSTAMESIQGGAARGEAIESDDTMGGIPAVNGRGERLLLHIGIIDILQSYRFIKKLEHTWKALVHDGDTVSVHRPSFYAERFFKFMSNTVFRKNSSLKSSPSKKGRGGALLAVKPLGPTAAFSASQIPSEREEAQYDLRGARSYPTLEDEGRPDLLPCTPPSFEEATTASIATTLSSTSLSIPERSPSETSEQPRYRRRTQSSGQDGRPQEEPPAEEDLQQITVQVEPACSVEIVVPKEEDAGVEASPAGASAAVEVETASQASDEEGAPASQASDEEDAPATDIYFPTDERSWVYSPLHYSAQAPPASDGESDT
AKT3 (human), sequence (Q9Y243 whole entry, looked up): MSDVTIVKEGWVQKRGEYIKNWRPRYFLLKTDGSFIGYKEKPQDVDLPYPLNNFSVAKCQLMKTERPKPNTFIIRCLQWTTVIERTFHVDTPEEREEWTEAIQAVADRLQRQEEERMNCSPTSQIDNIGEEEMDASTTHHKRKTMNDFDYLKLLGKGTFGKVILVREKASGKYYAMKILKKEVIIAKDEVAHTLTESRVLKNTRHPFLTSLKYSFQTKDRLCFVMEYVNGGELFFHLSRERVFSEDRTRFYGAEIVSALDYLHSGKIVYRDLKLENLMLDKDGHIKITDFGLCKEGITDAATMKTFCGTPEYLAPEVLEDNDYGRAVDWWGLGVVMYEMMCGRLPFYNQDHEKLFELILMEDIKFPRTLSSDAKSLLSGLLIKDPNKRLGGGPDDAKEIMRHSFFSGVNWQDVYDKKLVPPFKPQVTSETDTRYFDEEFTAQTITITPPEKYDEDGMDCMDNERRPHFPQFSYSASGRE
MAP2K3 (human), sequence (P46734 whole entry, looked up): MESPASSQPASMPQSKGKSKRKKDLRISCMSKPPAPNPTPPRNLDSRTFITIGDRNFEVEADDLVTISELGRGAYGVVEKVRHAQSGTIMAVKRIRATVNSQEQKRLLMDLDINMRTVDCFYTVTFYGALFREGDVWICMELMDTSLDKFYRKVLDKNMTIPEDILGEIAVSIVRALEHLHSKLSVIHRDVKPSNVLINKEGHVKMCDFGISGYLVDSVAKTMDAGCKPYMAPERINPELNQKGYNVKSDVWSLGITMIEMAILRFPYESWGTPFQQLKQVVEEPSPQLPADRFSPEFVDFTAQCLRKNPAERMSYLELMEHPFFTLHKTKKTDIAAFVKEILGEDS
STK3 (human), sequence (Q13188 whole entry, looked up): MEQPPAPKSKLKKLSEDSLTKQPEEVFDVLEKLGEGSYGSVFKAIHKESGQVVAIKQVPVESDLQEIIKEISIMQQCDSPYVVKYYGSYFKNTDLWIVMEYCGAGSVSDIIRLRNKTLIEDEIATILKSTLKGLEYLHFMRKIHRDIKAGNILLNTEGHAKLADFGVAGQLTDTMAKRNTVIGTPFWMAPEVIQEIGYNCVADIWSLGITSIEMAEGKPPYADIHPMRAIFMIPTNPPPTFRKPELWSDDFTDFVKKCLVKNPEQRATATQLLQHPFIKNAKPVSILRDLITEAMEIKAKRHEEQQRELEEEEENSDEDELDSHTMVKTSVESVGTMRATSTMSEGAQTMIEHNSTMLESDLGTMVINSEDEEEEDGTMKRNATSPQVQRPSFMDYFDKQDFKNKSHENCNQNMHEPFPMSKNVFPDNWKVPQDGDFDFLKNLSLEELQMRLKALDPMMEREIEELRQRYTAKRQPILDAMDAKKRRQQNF

In the case of `CCc1ccc(C(=O)Nc2cc(CN3CCN(C)CC3)cc(C(F)(F)F)c2)cc1C#Cc1cnc2ccnn2c1`, the kinase still bound, per cent of control (PRKACB (human)) is reported as 100%, the kinase still bound, per cent of control (LRRK2 (human)) is reported as 86% and the kinase still bound, per cent of control (LATS2 (human)) is reported as 100%. It also gave a kinase still bound, per cent of control (PRKX (human)) of 100%, a kinase still bound, per cent of control (MAP3K11 (human)) of 83% and a kinase still bound, per cent of control (HUNK (human)) of 100%. It also gave a kinase still bound, per cent of control (DYRK1A (human)) of 100%, a kinase still bound, per cent of control (CSNK1E (human)) of 85% and a kinase still bound, per cent of control (PIP5K1C (human)) of 96%. The kinase still bound, per cent of control (SRPK3 (human)) was 92%, the kinase still bound, per cent of control (ROCK1 (human)) was 83% and the kinase still bound, per cent of control (HIPK1 (human)) was 100%. The kinase still bound, per cent of control (CPK1 (P.falciparum)) was 100%, the kinase still bound, per cent of control (EPHA3 (human)) was 47% and the kinase still bound, per cent of control (PIK3C2B (human)) was 100%. It also gave a kinase still bound, per cent of control (DMPK (human)) of 100%, a kinase still bound, per cent of control [1] of 100% and a kinase still bound, per cent of control (STK3 (human)) of 100%. It also gave a kinase still bound, per cent of control (AKT3 (human)) of 100%, a kinase still bound, per cent of control (FYN (human)) of 72% and a kinase still bound, per cent of control (CHUK (human)) of 100%. For the same compound, the kinase still bound, per cent of control (MAP2K3 (human)) was 100%, the kinase still bound, per cent of control (CDK2 (human)) was 84% and the kinase still bound, per cent of control (MAP4K3 (human)) was 100%. For the same compound, the kinase still bound, per cent of control (KDR (human)) was 100%, the kinase still bound, per cent of control (VRK2 (human)) was 100% and the kinase still bound, per cent of control (ULK1 (human)) was 100%. For the same compound, the kinase still bound, per cent of control [2] was 100%, the kinase still bound, per cent of control (PDGFRA (human)) was 79% and the kinase still bound, per cent of control (CDC42BPB (human)) was 78%. For the same compound, the kinase still bound, per cent of control (RET (human)) was 52%, the kinase still bound, per cent of control (PAK6 (human)) was 81% and the kinase still bound, per cent of control (FGFR1 (human)) was 84%. For the same compound, the kinase still bound, per cent of control (MAPK6 (human)) was 98%, the kinase still bound, per cent of control (MAP3K15 (human)) was 100% and the kinase still bound, per cent of control (ACVR2A (human)) was 97%. The kinase still bound, per cent of control (AKT1 (human)) was 81%, the kinase still bound, per cent of control (CDK13 (human)) was 71% and the kinase still bound, per cent of control (TBK1 (human)) was 100%. The kinase still bound, per cent of control (CDKL3 (human)) was 56% and the kinase still bound, per cent of control (MAP3K3 (human)) was 100%.

Source: the kinase profiling compilation of Christmann-Franck et al. (2016)
